# From the supplement of paper PMC10307832
# Columns and labels:
# Assay in all cases: relative viability (nuclei count vs DMSO), 5 days (fraction); higher = more cells survive
# Ponatinib + AZD7762 = compound: Cc1ccc(C(=O)Nc2ccc(CN3CCN(C)CC3)c(C(F)(F)F)c2)cc1C#Cc1cnc2cccnn12 [Ponatinib] + NC(=O)Nc1cc(-c2cccc(F)c2)sc1C(=O)N[C@H]1CCCNC1 [AZD7762] (partner 0.2 µM)
# How it was run: (§1)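 Values are medians from duplicate plates. Each reflects relative viability, defined as the nuclei count of treated wells over that of vehicle wells. Lung cancer cell lines in 1536-well plates were pin-tool dosed one day after seeding with one drug alone or with a fixed anchor-drug dose plus five library-drug doses (not always all listed) in √10 steps, then fixed, stained and imaged at 4× after 5 days.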
# Ponatinib + Tozasertib = compound: Cc1ccc(C(=O)Nc2ccc(CN3CCN(C)CC3)c(C(F)(F)F)c2)cc1C#Cc1cnc2cccnn12 [Ponatinib] + Cc1cc(Nc2cc(N3CCN(C)CC3)nc(Sc3ccc(NC(=O)C4CC4)cc3)n2)n[nH]1 [Tozasertib] (partner 0.1 µM)
# How it was run: as §1
# Ponatinib + Pemetrexed = compound: Cc1ccc(C(=O)Nc2ccc(CN3CCN(C)CC3)c(C(F)(F)F)c2)cc1C#Cc1cnc2cccnn12 [Ponatinib] + Nc1nc2[nH]cc(CCc3ccc(C(=O)N[C@@H](CCC(=O)O)C(=O)O)cc3)c2c(=O)[nH]1 [Pemetrexed] (partner 0.2 µM)
# How it was run: as §1
# Pazopanib + Phenformin = compound: Cc1ccc(Nc2nccc(N(C)c3ccc4c(C)n(C)nc4c3)n2)cc1S(N)(=O)=O [Pazopanib] + N=C(N)NC(=N)NCCc1ccccc1 [Phenformin] (partner 250 µM)
# How it was run: as §1
Cell Line,relative viability (Ponatinib + AZD7762; first compound 0.002 µM),relative viability (Ponatinib + AZD7762; first compound 0.006325 µM),relative viability (Ponatinib + AZD7762; first compound 0.06325 µM),relative viability (Ponatinib + AZD7762; first compound 0.2 µM),relative viability (Ponatinib + Tozasertib; first compound 0.002 µM),relative viability (Ponatinib + Tozasertib; first compound 0.006325 µM),relative viability (Ponatinib + Tozasertib; first compound 0.06325 µM),relative viability (Ponatinib + Tozasertib; first compound 0.2 µM),relative viability (Ponatinib + Pemetrexed; first compound 0.002 µM),relative viability (Ponatinib + Pemetrexed; first compound 0.006325 µM),relative viability (Ponatinib + Pemetrexed; first compound 0.06325 µM),relative viability (Ponatinib + Pemetrexed; first compound 0.2 µM),relative viability (Pazopanib + Phenformin; first compound 0.01 µM),relative viability (Pazopanib + Phenformin; first compound 0.03162 µM),relative viability (Pazopanib + Phenformin; first compound 0.1 µM),relative viability (Pazopanib + Phenformin; first compound 0.3162 µM),relative viability (Pazopanib + Phenformin; first compound 1 µM)
201T,0.557,0.546,0.38,0.371,0.924,1.01,0.966,0.926,0.319,0.324,0.346,0.352,0.444,0.425,0.438,0.455,0.462
A549,,,,,,,,,,,,,,0.169,0.178,0.142,0.18
A-427,0.713,0.73,0.593,0.582,0.23,0.227,0.198,0.167,0.928,0.986,0.981,0.908,0.309,0.4,0.286,0.332,0.288
ABC-1,0.828,0.878,0.755,0.663,0.213,0.147,0.141,0.204,,,,,0.23,0.242,,0.196,0.269
BEN,0.494,0.625,0.589,0.774,0.544,0.52,0.486,0.533,0.678,0.718,0.749,0.767,,0.281,0.288,0.266,0.238
CAL-12T,0.548,0.554,0.611,0.5,0.317,0.259,0.268,0.265,1.13,1.14,1.31,1.21,0.595,0.616,0.544,0.664,0.581
COR-L23,,,,,0.209,0.213,0.171,0.142,0.19,0.193,0.189,0.19,0.44,0.459,0.41,0.463,0.493
COR-L 105,,,,,0.304,0.343,0.372,0.316,1.09,1.07,1.25,1.04,0.446,0.553,0.52,0.724,0.636
ChaGo-K-1,0.763,0.857,0.847,0.819,0.234,0.213,0.177,0.209,0.264,0.258,0.262,0.246,0.474,0.428,0.535,0.547,0.495
EKVX,0.7,0.766,0.673,0.606,0.386,0.45,0.375,0.314,0.382,0.493,0.427,0.374,0.227,0.224,0.207,0.225,0.234
EMC-BAC-2,0.996,1.05,1.13,0.989,0.285,0.275,0.277,0.239,0.436,0.404,0.468,0.395,,0.513,0.498,0.536,0.537
EPLC-272H,0.242,0.175,0.204,0.234,0.246,0.394,0.365,0.307,0.397,0.359,0.388,0.408,,0.311,0.308,0.347,0.392
H3255,0.817,0.858,1.05,0.95,0.606,0.638,0.561,0.459,0.527,0.607,0.614,0.546,0.298,0.33,0.365,0.306,0.367
HARA,0.382,0.351,0.31,0.356,0.0958,0.111,0.0906,0.0762,0.262,0.23,0.246,0.282,0.43,0.363,0.486,0.467,0.479
HCC-15,1.18,1.19,1.32,1.31,0.401,0.479,0.432,0.328,0.223,0.217,0.226,0.224,0.476,0.507,0.498,0.519,0.505
HCC-44,0.992,1.02,1.02,0.997,0.946,0.882,0.87,0.595,0.636,0.653,0.688,0.622,0.216,0.213,0.256,0.234,0.213
HCC-78,0.52,0.537,0.669,0.647,0.385,0.511,0.404,0.33,0.576,0.885,0.865,0.894,0.531,0.696,0.626,0.635,0.622
HCC-366,0.247,0.271,0.146,0.119,0.112,0.108,0.0686,0.0671,0.128,0.154,0.191,0.201,0.566,0.642,0.547,0.608,0.638
HCC-827,0.185,0.216,0.182,0.253,0.403,0.42,0.427,0.414,0.234,0.304,0.288,0.247,0.46,0.466,0.374,0.426,0.414
HOP-62,0.643,0.417,0.831,0.439,0.303,0.348,0.317,0.33,0.268,0.33,0.276,0.304,0.654,0.627,0.734,0.673,0.665
